{"source": "patent US20250049678A1", "about": "“COMPOUNDS ATTACHABLE TO SKIN” (Inkbox Ink Incorporated, priority 2021, published 2025)", "key": {"[1]": {"assay": "UV/visible absorbance after reacting the compound with lysine to mimic skin binding", "format": "physicochemical", "details": "for visible color after reaction with lysine / UV-light absorption after reaction with lysine: lysine conjugate, mimic of skin binding; for visible color after reaction with lysine: absorbance at wavelengths above 410 nm; for UV-light absorption after reaction with lysine: absorbance at wavelengths below 410 nm; for shift in UV absorbance peak on reaction with lysine: compound versus its lysine conjugate; for absorbance properties / color of the dye compound after binding to lysine: versus the dye compound prior to conjugation with lysine, in solution, FIG. 3D; for UV blocking activity: FIG. 6, salicylic acid as such, attached to hydrogenated genipin anchor, and bound to skin mimic", "source_text": "A hydrogenated genipin derivative (compound 1) was conjugated with lysine to obtain compound 1-lysine conjugate:\nThe azo-dye compound of example 5 was conjugated with lysine to obtain a conjugate:\nThe compound of Example 7 was conjugated with lysine to obtain the lysine conjugate:\nThe OL compound of example 8 was conjugated with lysine to obtain OL-lysine conjugate: […]"}, "[2]": {"tested_on": "skin substrate (a porcine skin explant)", "assay": "Sunscreen application on skin substrate: UV-light absorption and retention after wiping, washing and scrubbing", "source_text": "When referring to protective groups hydrolysable under physiological conditions after application of the topical composition onto the skin here and elswhere in the dislcosure: Such groups are readily known to the skilled person and include, in particular acyl moieties such as optionally substituted acyl moieties comprising 1 to 30, more specifically 1 to 16, and in particular 1 to 12, carbon atoms; 0 to 12, more specifically 0 to 8, and in particular 0 to 6 oxygen atoms; 0 to 8, more specifically 0 to 6, and in particular 0 to 4 nitrogen atoms; 0 to 6, more specifically 0 to 4, and in particular 0 to 3 sulfur atoms; and 0 to 10, more specifically 0 to 8, and in particular 0 to 6 halogen atoms. Specific examples include C1-C18 acyl moieties, more specifically C1-C12 acyl moieties and in particular […]. When referring in this context to “physiological conditions” it should be understood that this in particular refers to the pH conditions encountered at the locus where the compound of formula (I) is supposed to bind to proteins in e.g. the stratum corneum and/or the epidermis of the (mammalian, in particular human) subject to be treated. […]"}}}
{"smiles": "COC(=O)C1=CN(CCCCC(N)C(=O)O)C=C2C(COC(=O)c3ccccc3O)CCC12", "note": "(stereo not drawn)", "values": [{"measurement": "visible color after reaction with lysine", "setting": "[1]", "result": "no visible color"}, {"measurement": "UV-light absorption after reaction with lysine", "setting": "[1]", "result": "strong UV-light absorption"}]}
{"smiles": "C=CC1=CN(CCCCC(N)C(=O)O)C=C(C(=O)OC)C1CC(=O)OCCc1ccc(O)c(O)c1", "note": "(stereo not drawn)", "values": [{"measurement": "visible color after reaction with lysine", "setting": "[1]", "result": "no visible color"}, {"measurement": "UV-light absorption after reaction with lysine", "setting": "[1]", "result": "strong UV-light absorption"}]}
{"smiles": "COC(=O)C1=COC(O)C2C(C)CCC12", "note": "(stereo not drawn) [Compound 1, methyl 1-hydroxy-7-methyl-1,4a,5,6,7,7a-hexahydrcyclopenta[c]pyran-4-carboxylate]", "values": [{"measurement": "shift in UV absorbance peak on reaction with lysine", "setting": "[1]", "result": "small shift"}, {"measurement": "visible color after reaction with lysine", "setting": "[1]", "result": "no visible color"}, {"measurement": "UV-light absorption after reaction with lysine", "setting": "[1]", "result": "strong UV-absorption"}]}
{"smiles": "COC(=O)C1=COC(O)C2C(CO)CCC12", "note": "(stereo not drawn) [Compound 2, methyl 1-hydroxy-7-(hydroxymethyl)-1,4a,5,6,7,7a-hexahydrocyclopenta[c]pyran-4-carboxylate]", "values": [{"measurement": "visible color after reaction with lysine", "setting": "[1]", "result": "no visible color"}, {"measurement": "UV-light absorption after reaction with lysine", "setting": "[1]", "result": "strong UV-light absorption"}]}
{"smiles": "COC(=O)C1=COC(O)C2C(COC(=O)c3ccc(/N=N/c4ccccc4)cc3)CCC12", "note": "(stereo not drawn) [Example 5, methyl (E)-1-hydroxy-7-(((4-(phenyldiazenyl)benzoyl)oxy)methyl)-1,4a,5,6,7,7a-hexahydrocyclopenta[c]pyran-4-carboxylate]", "values": [{"measurement": "absorbance properties / color of the dye compound after binding to lysine", "setting": "[1]", "result": "does not alter absorbance properties"}, {"measurement": "absorbance properties / color of the dye compound after binding to lysine", "setting": "[1]; listed as azo-dye-anchor molecule", "result": "retains its original color"}]}
{"smiles": "COC(=O)C1=COC(O)C2C(COC(=O)c3ccccc3O)CCC12", "note": "(stereo not drawn) [Example 7, methyl 1-hydroxy-7-(((2-hydroxybenzoyl)oxy)methyl)-1,4a,5,6,7,7a-hexahydrocyclopenta[c]pyran-4-carboxylate]", "values": [{"measurement": "UV blocking activity", "setting": "[1]", "result": "retained"}, {"measurement": "shift in UV absorbance peak on reaction with lysine", "setting": "[1]", "result": "small shift in UV absorbance peak"}, {"measurement": "visible color after reaction with lysine", "setting": "[1]", "result": "no visible color is produced"}]}
{"smiles": "C/C=C1/[C@H](O)OC=C(C(=O)OC)[C@H]1CC(=O)OCCc1ccc(O)c(O)c1", "note": "[OL, methyl (4s,5e,6r)-4-[2-[2-(3,4-dihydroxyphenyl)ethoxy]-2-oxoethyl]-5-ethylidene-6-hydroxy-4h-pyran-3-carboxylate]", "values": [{"measurement": "shift in UV absorbance peak on reaction with lysine", "setting": "[1]", "result": "small shift in UV absorbance peak"}, {"measurement": "visible color after reaction with lysine", "setting": "[1]", "result": "almost no visible color"}]}
{"smiles": "COC(=O)C1=CN(CCCCC(N)C(=O)O)C=C2C(C)CCC12", "note": "(stereo not drawn) [compound 1-lysine conjugate]", "values": [{"measurement": "visible color after reaction with lysine", "setting": "[1]", "result": "no visible color"}, {"measurement": "UV-light absorption after reaction with lysine", "setting": "[1]", "result": "strong UV-light absorption"}]}
{"smiles": "CCCCC(CC)COC(=O)c1ccccc1O", "note": "(stereo not drawn) [octisalate]", "values": [{"measurement": "UV-light absorption on the skin substrate and removability after wiping", "setting": "[2]; 50 mM solutions, 2 and 4 hours after application, wiped with a wet tissue at 4 hours, UV light 254 nm, FIG. 4", "result": "easily removable from the skin"}, {"measurement": "UV-light absorption / presence on the skin substrate after washing and scrubbing", "setting": "[2]; 24 and 26 hours total contact time, submerged in water for 2 hours and scrubbed vigorously, UV camera with UV-B filter, FIG. 5", "result": "no longer present"}]}
{"smiles": "O=C(O)c1ccccc1O", "note": "[salicylic acid, reference compound]", "values": [{"measurement": "UV blocking activity", "setting": "[1]", "result": "UV blocking agent"}]}
